According to PubChem BioAssay (NCI):
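Step 1: Grow cells in 96-well plates. Step 2: Expose to compound for 48 hours at 5 concentrations. Step 3: Interpolate endpoints linearly; if unreached, use highest concentration. GI50 is the concentration that inhibits growth by half. TGI: total growth inhibition.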

Columns and labels:
Experiment in all cases: growth of human tumour cells (NCI), 48 h
[1] = system: OVCAR-8 ovarian
[2] = system: SK-MEL-28 melanoma
[3] = system: TK-10 renal
[4] = system: UACC-62 melanoma
[5] = system: HS 578T breast
[6] = system: SK-MEL-5 melanoma
[7] = system: MALME-3M melanoma
[8] = system: MCF7 breast
[9] = system: OVCAR-4 ovarian
[10] = system: A498 renal
[11] = system: BT-549 breast
[12] = system: OVCAR-5 ovarian
[13] = system: M14 melanoma
[14] = system: NCI-H226 lung
[15] = system: SNB-19 CNS
[16] = system: SK-OV-3 ovarian
[17] = system: SF-268 CNS
[18] = system: DU-145 prostate
[19] = system: IGROV1 ovarian
[20] = system: U251 CNS
[21] = system: UACC-257 melanoma
[22] = system: NCI/ADR-RES ovarian
[23] = system: SNB-75 CNS
[24] = system: SN12C renal
[25] = system: A549 NSCLC
[26] = system: PC-3 prostate
[27] = system: OVCAR-3 ovarian
[28] = system: UO-31 renal
[29] = system: COLO 205 colon
[30] = system: SW-620 colon
[31] = system: SF-295 CNS
[32] = system: ACHN renal
[33] = system: NCI-H23 lung
[34] = system: MDA-MB-231 breast

Cc1ccc(NCCN(C)CC(C)O)c2c(=O)c3ccc(Cl)cc3sc12 (stereo not given)
GI50 [1]: 7.16 µM
TGI [1]: > 100 µM
GI50 [2]: 1.75 µM
TGI [2]: 3.31 µM
GI50 [3]: 5.08 µM
TGI [3]: > 100 µM
GI50 [4]: 1.85 µM
TGI [4]: 3.48 µM
GI50 [5]: 2.83 µM
TGI [5]: > 100 µM
GI50 [6]: 1.65 µM
TGI [6]: 3.01 µM
GI50 [7]: 1.78 µM
TGI [7]: 3.54 µM
GI50 [8]: 2.18 µM
TGI [8]: > 100 µM
GI50 [9]: 8.47 µM
TGI [9]: 81.8 µM
GI50 [10]: 2.31 µM
TGI [10]: 8.37 µM
GI50 [11]: 5.14 µM
TGI [11]: > 100 µM
GI50 [12]: 3 µM
TGI [12]: > 100 µM
GI50 [13]: 1.77 µM
TGI [13]: 3.38 µM
GI50 [14]: 5.45 µM
TGI [14]: > 100 µM
GI50 [15]: 4.62 µM
TGI [15]: > 100 µM
GI50 [16]: 3.19 µM
TGI [16]: > 100 µM
GI50 [17]: 6.47 µM
TGI [17]: > 100 µM
GI50 [18]: 3.75 µM
TGI [18]: > 100 µM
GI50 [19]: 4.79 µM
TGI [19]: > 100 µM
GI50 [20]: 3.68 µM
TGI [20]: > 100 µM
GI50 [21]: 1.96 µM
TGI [21]: 3.57 µM
GI50 [22]: 4.68 µM
TGI [22]: > 100 µM
GI50 [23]: 6.65 µM
TGI [23]: > 100 µM
GI50 [24]: 4.42 µM
TGI [24]: > 100 µM
GI50 [25]: 4.08 µM
TGI [25]: > 100 µM
GI50 [26]: 2.96 µM
TGI [26]: > 100 µM
GI50 [27]: 4.13 µM
TGI [27]: > 100 µM

NC(N)=N/N=C/c1c(-c2ccc(Cl)c(Cl)c2Cl)nc2sccn12
TGI [28]: 2.82 µM
TGI [2]: 3.12 µM
TGI [3]: 2.7 µM
TGI [29]: 2.73 µM
TGI [4]: 2.81 µM
TGI [30]: 3.07 µM
TGI [31]: 3.29 µM
TGI [10]: 2.3 µM
TGI [32]: > 100 µM
TGI [14]: 3.56 µM
TGI [16]: 3.33 µM
TGI [33]: 2.65 µM
TGI [34]: 2.47 µM
TGI [18]: 3.12 µM
TGI [21]: 3.02 µM
TGI [26]: > 100 µM
